# Assay results from ChEMBL document CHEMBL1909046, “DrugMatrix in vitro pharmacology data”.
# Columns and labels:
# [1] = molecular target: Beta-2 adrenergic receptor (Homo sapiens, UniProt P07550); experiment: DRUGMATRIX: Adrenergic beta2 radioligand binding (ligand: [3H] CGP-12177); assay type: cell membranes, Membrane; conditions: cho; Not Active = under 50% inhibition at 10 µM
# [2] = DRUGMATRIX: Calcium Channel Type L, Benzothiazepine radioligand binding (ligand: [3H] Diltiazem); assay type: cell membranes, Rattus norvegicus, Wistar, Brain, Membrane; conditions: Not Active = under 50% inhibition at 10 µM
# [3] = molecular target: T1, 5-hydroxytryptamine receptor 2C (Homo sapiens, UniProt P28335); experiment: DRUGMATRIX: Serotonin (5-Hydroxytryptamine) 5-HT2C radioligand binding (ligand: [3H] Mesulergine); assay type: cell membranes, CHO-K1, Membrane; conditions: Not Active = under 50% inhibition at 10 µM
# T1 sequence (P28335 whole entry): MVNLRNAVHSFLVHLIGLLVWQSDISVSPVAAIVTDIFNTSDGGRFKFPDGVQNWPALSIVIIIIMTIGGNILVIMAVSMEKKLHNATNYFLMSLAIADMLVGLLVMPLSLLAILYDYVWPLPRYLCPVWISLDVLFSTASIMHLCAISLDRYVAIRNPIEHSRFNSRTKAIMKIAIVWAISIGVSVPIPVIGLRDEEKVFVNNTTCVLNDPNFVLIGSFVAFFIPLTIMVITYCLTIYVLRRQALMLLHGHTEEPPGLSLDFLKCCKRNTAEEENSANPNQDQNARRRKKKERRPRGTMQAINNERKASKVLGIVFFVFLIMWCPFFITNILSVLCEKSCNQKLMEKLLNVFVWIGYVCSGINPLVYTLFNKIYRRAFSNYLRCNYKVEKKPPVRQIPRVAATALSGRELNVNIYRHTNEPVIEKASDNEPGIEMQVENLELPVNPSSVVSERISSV
# D(3) dopamine receptor = D(3) dopamine receptor (Homo sapiens, UniProt P35462); experiment: DRUGMATRIX: Dopamine D3 radioligand binding (ligand: [3H] Spiperone); assay type: cell membranes, CHO, Membrane
# [4] = molecular target: Mitogen-activated protein kinase 1 (Homo sapiens, UniProt P28482); experiment: DRUGMATRIX: Protein Serine/Threonine Kinase, ERK2 enzyme inhibition (substrate: Myelin Basic Protein); parameters: species or system Escherichia coli; conditions: Not Active = under 50% inhibition at 10 µM
# Estrogen receptor = molecular target: T2, Estrogen receptor (Homo sapiens, UniProt P03372); conditions: sf9; further: in other assays of this panel Not Active means under 50% inhibition at 10 µM
# T2 sequence (P03372 whole entry): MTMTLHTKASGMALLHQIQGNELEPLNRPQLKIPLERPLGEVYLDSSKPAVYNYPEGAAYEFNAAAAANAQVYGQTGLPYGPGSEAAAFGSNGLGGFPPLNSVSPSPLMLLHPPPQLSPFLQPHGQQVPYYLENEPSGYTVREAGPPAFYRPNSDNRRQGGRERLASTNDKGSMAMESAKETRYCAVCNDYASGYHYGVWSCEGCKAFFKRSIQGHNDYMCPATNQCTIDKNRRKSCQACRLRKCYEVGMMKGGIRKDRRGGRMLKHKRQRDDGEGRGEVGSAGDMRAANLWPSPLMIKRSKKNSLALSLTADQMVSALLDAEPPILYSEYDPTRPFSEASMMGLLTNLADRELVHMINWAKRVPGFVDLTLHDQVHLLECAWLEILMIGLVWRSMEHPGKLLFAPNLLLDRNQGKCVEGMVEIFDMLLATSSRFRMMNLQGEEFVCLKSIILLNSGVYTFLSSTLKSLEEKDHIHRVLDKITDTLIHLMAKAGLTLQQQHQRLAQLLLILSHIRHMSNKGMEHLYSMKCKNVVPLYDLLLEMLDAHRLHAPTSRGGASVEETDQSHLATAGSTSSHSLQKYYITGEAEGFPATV
# Sequence of Mitogen-activated protein kinase 1 (P28482 whole entry): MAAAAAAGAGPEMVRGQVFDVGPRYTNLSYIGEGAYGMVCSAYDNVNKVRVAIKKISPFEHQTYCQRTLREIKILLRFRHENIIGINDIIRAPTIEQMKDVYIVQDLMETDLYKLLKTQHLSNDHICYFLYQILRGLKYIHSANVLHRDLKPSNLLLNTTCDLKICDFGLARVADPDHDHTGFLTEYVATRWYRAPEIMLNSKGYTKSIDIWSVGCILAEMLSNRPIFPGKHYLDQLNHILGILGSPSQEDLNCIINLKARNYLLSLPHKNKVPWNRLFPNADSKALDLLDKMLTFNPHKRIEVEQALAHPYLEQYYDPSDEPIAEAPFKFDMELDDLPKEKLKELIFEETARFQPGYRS
# Sequence of D(3) dopamine receptor (P35462 whole entry): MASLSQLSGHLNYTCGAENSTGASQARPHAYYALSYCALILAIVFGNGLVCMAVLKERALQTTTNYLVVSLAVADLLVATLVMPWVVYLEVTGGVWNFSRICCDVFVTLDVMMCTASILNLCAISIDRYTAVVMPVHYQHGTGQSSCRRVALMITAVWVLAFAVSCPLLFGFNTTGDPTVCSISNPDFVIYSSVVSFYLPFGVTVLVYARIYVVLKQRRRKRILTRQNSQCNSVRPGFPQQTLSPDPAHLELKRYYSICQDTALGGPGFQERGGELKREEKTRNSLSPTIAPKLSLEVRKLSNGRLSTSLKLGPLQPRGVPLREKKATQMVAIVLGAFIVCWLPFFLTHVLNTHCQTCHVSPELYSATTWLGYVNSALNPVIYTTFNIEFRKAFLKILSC
Compound,IC50 [1],IC50 [2],Ki [2],IC50 ([3]; cho-k1),IC50 (D(3) dopamine receptor; cho),IC50 [4],IC50 (Estrogen receptor),also measured
N[C@@H](Cc1ccc(N(CCCl)CCCl)cc1)C(=O)O,Not Active,Not Active,Not Active,Not Active,Not Active,Not Active,,
CC(C)N1CCN(c2ccc(OCC3COC(Cn4cncn4)(c4ccc(Cl)cc4Cl)O3)cc2)CC1 (centres undefined) [TERCONAZOLE],Not Active,,,,,Not Active,Not Active,IC50 ([2]; read-out: IC50): 3010 nM; Ki ([2]; read-out: Ki): 2670 nM; IC50 ([3]; read-out: IC50): 6960 nM; Ki ([3]; read-out: Ki): 3650 nM; IC50 (D(3) dopamine receptor; read-out: IC50): 4710 nM; Ki (D(3) dopamine receptor; read-out: Ki): 1600 nM
Cc1nc2n(c(=O)c1CCN1CCC(c3noc4cc(F)ccc34)CC1)CCCC2 [RISPERIDONE],Not Active,,,,,Not Active,Not Active,
N[C@@H]1[C@H]2CN(c3nc4c(cc3F)c(=O)c(C(=O)O)cn4-c3ccc(F)cc3F)C[C@@H]12 [TROVAFLOXACIN],Not Active,Not Active,Not Active,Not Active,Not Active,Not Active,Not Active,
O=c1ncn2nc(Sc3ccc(F)cc3F)ccc2c1-c1c(Cl)cccc1Cl [NEFLAMAPIMOD],Not Active,Not Active,Not Active,Not Active,Not Active,Not Active,Not Active,
CCCCc1oc2ccccc2c1C(=O)c1cc(I)c(OCCN(CC)CC)c(I)c1 [AMIODARONE],Not Active,,,,,Not Active,Not Active,
CC[C@]1(O)C[C@H]2CN(CCc3c([nH]c4ccccc34)[C@@](C(=O)OC)(c3cc4c(cc3OC)N(C=O)[C@H]3[C@@](O)(C(=O)OC)[C@H](OC(C)=O)[C@]5(CC)C=CCN6CC[C@]43[C@@H]65)C2)C1 [VINCRISTINE],Not Active,Not Active,Not Active,Not Active,Not Active,Not Active,Not Active,
CO[C@H]1/C=C/O[C@@]2(C)Oc3c(C)c(O)c4c(O)c(c(/C=N/N5CCN(C)CC5)c(O)c4c3C2=O)NC(=O)/C(C)=C\C=C\[C@H](C)[C@H](O)[C@@H](C)[C@@H](O)[C@@H](C)[C@H](OC(C)=O)[C@@H]1C [RIFAMPIN],Not Active,Not Active,Not Active,Not Active,Not Active,Not Active,,
Cc1noc(NS(=O)(=O)c2ccc(N)cc2)c1C [SULFISOXAZOLE],Not Active,Not Active,Not Active,Not Active,Not Active,Not Active,Not Active,
NS(=O)(=O)c1cc2c(cc1Cl)NC(C(Cl)Cl)NS2(=O)=O (centres undefined) [TRICHLORMETHIAZIDE],Not Active,Not Active,Not Active,Not Active,Not Active,Not Active,,
COc1nc(C)nc(Cl)c1NC1=NCCN1 [MOXONIDINE],Not Active,Not Active,Not Active,Not Active,Not Active,Not Active,Not Active,
Nc1nc2ccc(OC(F)(F)F)cc2s1 [RILUZOLE],Not Active,Not Active,Not Active,Not Active,Not Active,Not Active,Not Active,
N[C@@H](Cc1cc(I)c(Oc2ccc(O)c(I)c2)c(I)c1)C(=O)O [LIOTHYRONINE],Not Active,,,Not Active,Not Active,Not Active,Not Active,
C[C@@H]1CN(c2c(F)c(N)c3c(=O)c(C(=O)O)cn(C4CC4)c3c2F)C[C@H](C)N1 [SPARFLOXACIN],Not Active,Not Active,Not Active,Not Active,Not Active,Not Active,Not Active,
CC1(C)O[C@@H]2C[C@H]3[C@@H]4CCC5=CC(=O)C=C[C@]5(C)[C@@]4(F)[C@@H](O)C[C@]3(C)[C@]2(C(=O)CO)O1 [TRIAMCINOLONE ACETONIDE],Not Active,Not Active,Not Active,Not Active,Not Active,Not Active,,
CSc1ccc(/C=C2/C(C)=C(CC(=O)O)c3cc(F)ccc32)cc1 [SULINDAC SULFIDE],Not Active,Not Active,Not Active,Not Active,Not Active,,Not Active,IC50 ([4]; read-out: IC50): 1090 nM

Compound,IC50 [1],IC50 [2],Ki [2],IC50 ([3]; cho-k1),IC50 (D(3) dopamine receptor; cho),IC50 [4],IC50 (Estrogen receptor),also measured
Nc1c2c(nc3ccccc13)CCCC2 [TACRINE],Not Active,Not Active,Not Active,Not Active,Not Active,Not Active,Not Active,
CN1CCN(CCCN2c3ccccc3Sc3ccc(Cl)cc32)CC1 [PROCHLORPERAZINE],Not Active,,,,,Not Active,Not Active,
N[C@@H](Cc1ccc(O)c(O)c1)C(=O)O [LEVODOPA],Not Active,Not Active,Not Active,Not Active,Not Active,Not Active,,
O=NN(CCCl)C(=O)NC1CCCCC1 [LOMUSTINE],Not Active,Not Active,Not Active,Not Active,Not Active,Not Active,,
Cc1c(C)c2c(c(C)c1O)CCC(C)(COc1ccc(CC3SC(=O)NC3=O)cc1)O2 (centres undefined) [TROGLITAZONE],Not Active,Not Active,Not Active,Not Active,Not Active,,Not Active,IC50 ([4]; read-out: IC50): 1240 nM
CCOC(=O)N1CCC(=C2c3ccc(Cl)cc3CCc3cccnc32)CC1 [LORATADINE],Not Active,Not Active,Not Active,Not Active,Not Active,Not Active,Not Active,
Cc1cccc(N(C)C(=S)Oc2ccc3ccccc3c2)c1 [TOLNAFTATE],Not Active,Not Active,Not Active,Not Active,Not Active,Not Active,Not Active,
NC[C@H]1CC[C@H](C(=O)O)CC1 [TRANEXAMIC ACID],Not Active,Not Active,Not Active,Not Active,Not Active,Not Active,Not Active,
CC[C@@H](CO)NC(=O)[C@@H]1C=C2c3cccc4[nH]cc(c34)C[C@H]2N(C)C1 [METHYLERGONOVINE],Not Active,Not Active,Not Active,,,Not Active,Not Active,IC50 ([3]; read-out: IC50): 13 nM; Ki ([3]; read-out: Ki): 6.56 nM; IC50 (D(3) dopamine receptor; read-out: IC50): 167 nM; Ki (D(3) dopamine receptor; read-out: Ki): 57 nM
c1ccc([C@H]2CN3CCSC3=N2)cc1 [LEVAMISOLE],Not Active,Not Active,Not Active,Not Active,Not Active,Not Active,Not Active,
OCCN(CCO)c1nc(N2CCCCC2)c2nc(N(CCO)CCO)nc(N3CCCCC3)c2n1 [DIPYRIDAMOLE],Not Active,Not Active,Not Active,Not Active,Not Active,Not Active,Not Active,
CC(C)(C)NC(=O)[C@@H]1C[C@@H]2CCCC[C@@H]2CN1C[C@@H](O)[C@H](Cc1ccccc1)NC(=O)[C@H](CC(N)=O)NC(=O)c1ccc2ccccc2n1,Not Active,,,Not Active,,Not Active,Not Active,IC50 ([2]; read-out: IC50): 10900 nM; Ki ([2]; read-out: Ki): 9690 nM
Nc1nc2nc[nH]c2c(=S)[nH]1 [THIOGUANINE],Not Active,Not Active,Not Active,Not Active,Not Active,Not Active,Not Active,
SODIUM NITROPRUSSIDE,Not Active,Not Active,Not Active,Not Active,Not Active,Not Active,Not Active,Ki [1]: Not Active; Ki ([3]; cho-k1): Not Active; Ki (D(3) dopamine receptor; cho): Not Active; Ki [4]: Not Active; Ki (Estrogen receptor): Not Active
CC/C(=C(\c1ccccc1)c1ccc(OCCN(C)C)cc1)c1ccccc1 [TAMOXIFEN],Not Active,,,,,Not Active,,IC50 ([3]; read-out: IC50): 460 nM; Ki ([3]; read-out: Ki): 241 nM; IC50 (D(3) dopamine receptor; read-out: IC50): 1070 nM; Ki (D(3) dopamine receptor; read-out: Ki): 364 nM
